{"source": "patent US11542265B2", "about": "“Pyrazolopyrimidine compounds and uses thereof” (Incyte Corporation, priority 2016, dated 2023)", "note": "pKi: −log10 of the molar value."}
{"biological_target": "HPK1 (Homo sapiens, UniProt Q92918)", "sequence (Q92918 whole entry, looked up)": "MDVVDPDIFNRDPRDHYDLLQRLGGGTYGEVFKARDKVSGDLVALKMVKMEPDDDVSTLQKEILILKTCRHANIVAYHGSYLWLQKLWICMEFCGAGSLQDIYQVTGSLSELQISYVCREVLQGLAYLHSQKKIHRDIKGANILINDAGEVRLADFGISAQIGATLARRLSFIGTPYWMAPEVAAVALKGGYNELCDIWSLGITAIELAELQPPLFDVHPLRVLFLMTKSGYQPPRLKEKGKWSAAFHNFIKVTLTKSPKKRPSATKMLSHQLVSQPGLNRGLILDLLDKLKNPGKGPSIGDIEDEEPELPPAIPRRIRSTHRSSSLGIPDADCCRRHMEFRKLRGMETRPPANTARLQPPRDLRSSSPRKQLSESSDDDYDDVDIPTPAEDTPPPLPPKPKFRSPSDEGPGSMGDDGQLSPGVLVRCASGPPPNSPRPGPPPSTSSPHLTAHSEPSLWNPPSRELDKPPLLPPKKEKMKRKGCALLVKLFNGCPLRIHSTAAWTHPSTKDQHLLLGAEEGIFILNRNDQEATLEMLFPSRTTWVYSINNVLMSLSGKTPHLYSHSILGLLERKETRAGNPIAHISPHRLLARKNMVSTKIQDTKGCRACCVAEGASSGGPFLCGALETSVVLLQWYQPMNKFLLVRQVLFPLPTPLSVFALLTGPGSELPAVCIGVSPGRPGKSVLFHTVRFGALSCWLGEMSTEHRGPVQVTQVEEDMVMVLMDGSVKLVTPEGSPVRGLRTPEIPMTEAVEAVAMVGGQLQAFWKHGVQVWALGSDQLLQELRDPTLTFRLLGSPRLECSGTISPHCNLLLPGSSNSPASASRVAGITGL", "test": "HPK1 Kinase Binding Assay", "conditions": "LanthaScreen tracer 222, Eu-Anti GST antibody, active HPK1, one hour incubation at 25° C.", "description": "A stock solution of 1 mM test compound was prepared in DMSO. The compound plate was prepared by 3-fold and 11-point serial dilutions. 0.1 μL of the compound in DMSO was transferred from the compound plate to the white 384 well polystyrene plates. The assay buffer contained 50 mM HEPES, pH 7.5, 0.01% Tween-20, 5 mM MgCl2, 0.01% BSA, and 5 mM DTT. 5 μl of 4 nM active HPK1 (SignalChem M23-11G) prepared in the buffer was added to the plate. The enzyme concentration given was based on the given stock concentration reported by the vender. 5 μl of 18 nM tracer 222 (ThermoFisher PV6121) and 4 nM LanthaScreen Eu-Anti GST antibody (ThermoFisher PV5595) were added. After one hour incubation at 25° C., the plates were read on a PHERAstar FS plate reader (BMG Labtech). Ki values were determined."}
{"smiles": "CNCc1cc(F)c(-c2ncc3[nH]nc(-c4ccc(NC5CCN(S(C)(=O)=O)CC5)cc4)c3n2)c(F)c1", "note": "[Example 72, 7V-(4-(5-(2,6-Difluoro-4-((methylamino)methyl)phenyl)-1H-pyrazolo[4,3-d]pyrimidin-3-yl)phenyl)-1-(methylsulfonyl)piperidin-4-amine]", "pKi": "≥ 7.00"}
{"smiles": "CNCc1cc(F)c(-c2ncc3[nH]nc(-c4ccc(N5CCCCC5)nc4)c3n2)c(C(F)(F)F)c1", "note": "[Example 76, 1-(3-Fluoro-4-(3-(6-(piperidin-1-yl)pyridin-3-yl)-1H-pyrazolo[4,3-d]pyrimidin-5-yl)-5-(trifluoromethyl)phenyl)-N-methylmethanamine]", "pKi": "≥ 7.00"}
{"smiles": "CN1CCN(c2ncc(-c3n[nH]c4cnc(-c5c(F)cc(CC#N)cc5F)nc34)cn2)CC1", "note": "[Example 105, 2-(3,5-Difluoro-4-(3-(2-(4-methylpiperazin-1-yl)pyrimidin-5-yl)-1H-pyrazolo[4,3-d]pyrimidin-5-yl)phenyl)acetonitrile]", "pKi": "≥ 7.00"}
